Laboratory results as given in ChEMBL document CHEMBL1909046, “DrugMatrix in vitro pharmacology data”.

What was measured:
[1] = molecular target: T1, Muscarinic acetylcholine receptor M2 (Homo sapiens, UniProt P08172); type: cell membranes, CHO-K1, Membrane; conditions: cho-k1; also: in other assays of this panel Not Active means under 50% inhibition at 10 µM
T1 sequence (P08172 whole entry): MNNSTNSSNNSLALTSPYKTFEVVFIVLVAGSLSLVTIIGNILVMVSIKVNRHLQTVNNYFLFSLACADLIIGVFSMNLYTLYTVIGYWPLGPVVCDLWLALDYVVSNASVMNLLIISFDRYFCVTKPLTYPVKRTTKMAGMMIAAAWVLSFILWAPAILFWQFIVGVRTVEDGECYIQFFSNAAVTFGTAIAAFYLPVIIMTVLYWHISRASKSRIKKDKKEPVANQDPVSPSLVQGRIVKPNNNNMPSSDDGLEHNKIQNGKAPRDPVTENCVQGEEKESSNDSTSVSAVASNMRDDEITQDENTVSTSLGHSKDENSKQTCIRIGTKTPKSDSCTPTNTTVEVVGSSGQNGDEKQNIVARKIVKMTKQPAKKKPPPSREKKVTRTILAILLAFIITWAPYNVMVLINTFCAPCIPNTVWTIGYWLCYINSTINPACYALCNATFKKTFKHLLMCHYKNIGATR

[2] = DRUGMATRIX: Phorbol Ester radioligand binding (ligand: [3H] PDBu); type: cell membranes, Mus musculus, ICR, Brain, Membrane; conditions: Not Active = under 50% inhibition at 10 µM
[3] = molecular target: C-C chemokine receptor type 2 (Homo sapiens, UniProt P41597); type: cell membranes, CHO-K1, Membrane; conditions: cho-k1; also: in other assays of this panel Not Active means under 50% inhibition at 10 µM
Chain of C-C chemokine receptor type 2 (P41597 whole entry): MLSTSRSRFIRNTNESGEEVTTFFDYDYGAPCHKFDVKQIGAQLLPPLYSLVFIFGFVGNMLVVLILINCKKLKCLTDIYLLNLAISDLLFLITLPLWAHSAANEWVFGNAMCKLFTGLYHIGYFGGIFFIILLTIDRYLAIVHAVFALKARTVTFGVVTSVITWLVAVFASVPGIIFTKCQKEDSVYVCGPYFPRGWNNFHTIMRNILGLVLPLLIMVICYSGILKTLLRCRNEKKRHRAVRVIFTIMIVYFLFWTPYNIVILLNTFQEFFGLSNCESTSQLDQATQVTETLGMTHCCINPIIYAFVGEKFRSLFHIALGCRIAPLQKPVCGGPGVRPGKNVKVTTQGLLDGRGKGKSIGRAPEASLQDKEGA

[4] = molecular target: T2, B2 bradykinin receptor (Homo sapiens, UniProt P30411); type: cell membranes, Membrane; conditions: chem-1; also: in other assays of this panel Not Active means under 50% inhibition at 10 µM
T2 sequence (P30411 whole entry): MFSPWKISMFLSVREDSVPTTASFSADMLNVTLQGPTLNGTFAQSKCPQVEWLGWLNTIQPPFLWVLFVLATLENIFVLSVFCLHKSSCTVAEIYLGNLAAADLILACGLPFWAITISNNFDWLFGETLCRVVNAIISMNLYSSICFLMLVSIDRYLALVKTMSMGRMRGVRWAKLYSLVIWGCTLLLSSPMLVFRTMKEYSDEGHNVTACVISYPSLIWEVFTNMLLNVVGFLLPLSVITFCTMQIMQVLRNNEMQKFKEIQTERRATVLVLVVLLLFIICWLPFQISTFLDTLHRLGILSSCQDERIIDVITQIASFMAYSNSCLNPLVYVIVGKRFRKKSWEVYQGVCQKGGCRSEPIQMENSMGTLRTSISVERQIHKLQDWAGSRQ

[5] = DRUGMATRIX: Glutamate, NMDA, Phencyclidine radioligand binding (ligand: [3H] TCP); type: cell membranes, Rattus norvegicus, Wistar, Cerebral cortex, Membrane; conditions: Not Active = under 50% inhibition at 10 µM
[6] = DRUGMATRIX: Leukotriene, BLT (LTB4) radioligand binding (ligand: [3H]LTB4); type: cell membranes, Membrane; conditions: u-937; Not Active = under 50% inhibition at 10 µM
[7] = molecular target: Beta-2 adrenergic receptor (Homo sapiens, UniProt P07550); assay: DRUGMATRIX: Adrenergic beta2 radioligand binding (ligand: [3H] CGP-12177); type: cell membranes, Membrane; conditions: cho; Not Active = under 50% inhibition at 10 µM
Chain of Beta-2 adrenergic receptor (P07550 whole entry): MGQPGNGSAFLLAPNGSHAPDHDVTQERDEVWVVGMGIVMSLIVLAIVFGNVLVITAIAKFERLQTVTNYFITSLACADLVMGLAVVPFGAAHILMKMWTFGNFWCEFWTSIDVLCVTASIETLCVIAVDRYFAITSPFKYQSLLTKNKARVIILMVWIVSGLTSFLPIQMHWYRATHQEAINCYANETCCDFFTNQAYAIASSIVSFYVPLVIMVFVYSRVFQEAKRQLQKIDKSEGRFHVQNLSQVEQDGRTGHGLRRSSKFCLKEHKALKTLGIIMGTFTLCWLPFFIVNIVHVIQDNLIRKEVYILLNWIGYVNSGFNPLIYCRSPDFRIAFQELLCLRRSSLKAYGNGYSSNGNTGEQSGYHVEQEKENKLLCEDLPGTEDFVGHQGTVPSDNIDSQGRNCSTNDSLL

[8] = DRUGMATRIX: Calcium Channel Type L, Dihydropyridine radioligand binding (ligand: [3H] Nitrendipine); type: cell membranes, Rattus norvegicus, Wistar, Cerebral cortex, Membrane; conditions: Not Active = under 50% inhibition at 10 µM
[9] = DRUGMATRIX: Sigma2 radioligand binding (ligand: [3H] Ifenprodil); type: cell membranes, Rattus norvegicus, Wistar, Brain, Membrane; conditions: Not Active = under 50% inhibition at 10 µM
[10] = molecular target: Tyrosine-protein kinase Lck (Homo sapiens, UniProt P06239); assay: DRUGMATRIX: Protein Tyrosine Kinase, LCK enzyme inhibition (substrate: Poly(Glu:Tyr)); type: cell-based, Insect cells; conditions: insect cells; Not Active = under 50% inhibition at 10 µM
Chain of Tyrosine-protein kinase Lck (P06239 whole entry): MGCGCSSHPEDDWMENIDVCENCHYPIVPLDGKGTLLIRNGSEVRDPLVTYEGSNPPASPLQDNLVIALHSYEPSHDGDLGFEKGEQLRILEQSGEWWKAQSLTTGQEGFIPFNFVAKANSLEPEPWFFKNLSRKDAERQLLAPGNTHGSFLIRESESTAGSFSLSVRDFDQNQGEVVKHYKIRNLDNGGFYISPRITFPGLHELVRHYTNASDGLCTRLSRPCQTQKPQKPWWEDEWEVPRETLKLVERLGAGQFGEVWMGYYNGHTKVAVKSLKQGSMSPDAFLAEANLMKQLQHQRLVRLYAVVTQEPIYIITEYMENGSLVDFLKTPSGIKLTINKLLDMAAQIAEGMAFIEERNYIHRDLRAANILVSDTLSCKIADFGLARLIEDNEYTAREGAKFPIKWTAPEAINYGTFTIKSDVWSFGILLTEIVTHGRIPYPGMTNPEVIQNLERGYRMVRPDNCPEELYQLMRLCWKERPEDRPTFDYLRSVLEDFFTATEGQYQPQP

[11] = DRUGMATRIX: GABAA, Muscimol, Central radioligand binding (ligand: [3H] Muscimol); type: cell membranes, Rattus norvegicus, Wistar, Brain, Membrane; conditions: Not Active = under 50% inhibition at 10 µM
[12] = molecular target: T3, Calcitonin receptor (Homo sapiens, UniProt P30988); type: cell membranes, Membrane; conditions: t47d; also: in other assays of this panel Not Active means under 50% inhibition at 10 µM
T3 sequence (P30988 whole entry): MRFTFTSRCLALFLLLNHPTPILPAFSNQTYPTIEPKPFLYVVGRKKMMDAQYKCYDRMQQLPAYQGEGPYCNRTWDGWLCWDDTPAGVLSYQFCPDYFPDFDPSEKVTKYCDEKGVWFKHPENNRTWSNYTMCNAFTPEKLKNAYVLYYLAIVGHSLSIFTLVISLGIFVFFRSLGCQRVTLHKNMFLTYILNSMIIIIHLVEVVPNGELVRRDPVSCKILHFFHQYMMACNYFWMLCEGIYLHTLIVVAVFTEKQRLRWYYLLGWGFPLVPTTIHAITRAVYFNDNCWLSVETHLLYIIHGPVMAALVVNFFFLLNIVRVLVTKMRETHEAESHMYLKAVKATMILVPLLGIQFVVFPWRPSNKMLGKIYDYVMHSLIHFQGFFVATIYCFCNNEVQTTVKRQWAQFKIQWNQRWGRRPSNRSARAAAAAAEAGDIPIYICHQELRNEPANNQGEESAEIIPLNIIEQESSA

[13] = DRUGMATRIX: GABAA, Flunitrazepam, Central radioligand binding (ligand: [3H] Flunitrazepam); type: cell membranes, Rattus norvegicus, Wistar, Brain, Membrane; conditions: Not Active = under 50% inhibition at 10 µM
[14] = molecular target: Kappa-type opioid receptor (Homo sapiens, UniProt P41145); assay: DRUGMATRIX: Opiate kappa (OP2, KOP) radioligand binding (ligand: [3H] Diprenorphine); type: cell membranes, HEK293, Membrane; conditions: hek293; Not Active = under 50% inhibition at 10 µM
Chain of Kappa-type opioid receptor (P41145 whole entry): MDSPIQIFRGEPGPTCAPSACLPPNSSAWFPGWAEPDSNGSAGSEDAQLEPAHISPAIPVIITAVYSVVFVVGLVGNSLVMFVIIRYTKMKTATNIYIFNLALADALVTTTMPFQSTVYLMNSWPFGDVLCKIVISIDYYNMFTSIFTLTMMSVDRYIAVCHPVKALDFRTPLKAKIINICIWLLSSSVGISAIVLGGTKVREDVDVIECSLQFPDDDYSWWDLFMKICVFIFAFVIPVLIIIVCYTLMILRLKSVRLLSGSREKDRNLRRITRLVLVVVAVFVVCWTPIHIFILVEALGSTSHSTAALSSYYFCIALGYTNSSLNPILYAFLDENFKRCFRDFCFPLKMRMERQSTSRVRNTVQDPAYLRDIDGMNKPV

[15] = molecular target: T4, Cholecystokinin receptor type A (Homo sapiens, UniProt P32238); type: cell membranes, Membrane; conditions: 1321-n1; also: in other assays of this panel Not Active means under 50% inhibition at 10 µM
T4 sequence (P32238 whole entry): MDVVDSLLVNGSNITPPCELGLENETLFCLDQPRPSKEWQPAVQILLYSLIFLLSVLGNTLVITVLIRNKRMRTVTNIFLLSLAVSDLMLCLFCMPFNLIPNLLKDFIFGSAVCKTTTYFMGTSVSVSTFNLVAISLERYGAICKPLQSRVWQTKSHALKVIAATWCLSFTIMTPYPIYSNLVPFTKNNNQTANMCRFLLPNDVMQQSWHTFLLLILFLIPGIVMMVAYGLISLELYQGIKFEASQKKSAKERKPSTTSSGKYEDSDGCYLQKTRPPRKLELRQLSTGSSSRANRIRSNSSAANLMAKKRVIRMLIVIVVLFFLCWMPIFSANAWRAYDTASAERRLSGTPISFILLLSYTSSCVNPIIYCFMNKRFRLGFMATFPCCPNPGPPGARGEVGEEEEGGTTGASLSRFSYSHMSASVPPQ

[16] = molecular target: Beta-1 adrenergic receptor (Homo sapiens, UniProt P08588); assay: DRUGMATRIX: Adrenergic beta1 radioligand binding (ligand: [125I] Cyanopindolol); type: cell membranes, CHO-K1, Membrane; conditions: cho-k1; Not Active = under 50% inhibition at 10 µM
Chain of Beta-1 adrenergic receptor (P08588 whole entry): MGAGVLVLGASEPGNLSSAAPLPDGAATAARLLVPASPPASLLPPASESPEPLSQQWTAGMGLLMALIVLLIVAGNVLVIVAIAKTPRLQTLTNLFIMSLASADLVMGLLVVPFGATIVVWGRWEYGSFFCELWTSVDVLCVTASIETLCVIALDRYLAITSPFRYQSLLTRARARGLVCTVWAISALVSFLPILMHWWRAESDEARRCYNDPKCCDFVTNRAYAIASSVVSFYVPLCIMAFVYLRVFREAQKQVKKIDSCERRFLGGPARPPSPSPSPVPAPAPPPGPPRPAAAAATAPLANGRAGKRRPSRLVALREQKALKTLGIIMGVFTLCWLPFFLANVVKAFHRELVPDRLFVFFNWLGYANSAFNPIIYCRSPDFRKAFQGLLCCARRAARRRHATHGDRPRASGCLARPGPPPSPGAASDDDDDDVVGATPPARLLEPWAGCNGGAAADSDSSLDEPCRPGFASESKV

Nc1nnc(-c2cccc(Cl)c2Cl)c(N)n1 [LAMOTRIGINE]
Not Active: IC50 [1] | IC50 [2] | Ki [2] | IC50 [3] | IC50 [4] | IC50 [5] | Ki [5] | IC50 [6] | Ki [6] | IC50 [7] | IC50 [8] | Ki [8] | IC50 [9] | Ki [9] | IC50 [10] | IC50 [11] | Ki [11] | IC50 [12] | IC50 [13] | Ki [13] | IC50 [14] | IC50 [15] | IC50 [16]

CCC[C@@H]1C[C@@H](C(=O)N[C@@H]([C@H]2O[C@H](SC)[C@H](O)[C@@H](O)[C@H]2O)[C@@H](C)O)N(C)C1 [LINCOMYCIN]
Not Active: IC50 [1] | IC50 [2] | Ki [2] | IC50 [3] | IC50 [4] | IC50 [5] | Ki [5] | IC50 [6] | Ki [6] | IC50 [7] | IC50 [8] | Ki [8] | IC50 [9] | Ki [9] | IC50 [10] | IC50 [11] | Ki [11] | IC50 [12] | IC50 [13] | Ki [13] | IC50 [14] | IC50 [15] | IC50 [16]

NCCCC[C@H](N[C@@H](CCc1ccccc1)C(=O)O)C(=O)N1CCC[C@H]1C(=O)O [LISINOPRIL ANHYDROUS]
Not Active: IC50 [1] | IC50 [2] | Ki [2] | IC50 [3] | IC50 [4] | IC50 [5] | Ki [5] | IC50 [6] | Ki [6] | IC50 [7] | IC50 [8] | Ki [8] | IC50 [9] | Ki [9] | IC50 [10] | IC50 [11] | Ki [11] | IC50 [12] | IC50 [13] | Ki [13] | IC50 [14] | IC50 [15] | IC50 [16]

COS(C)(=O)=O [METHANESULFONIC ACID METHYL ESTER]
Not Active: IC50 [1] | IC50 [2] | Ki [2] | IC50 [3] | IC50 [4] | IC50 [5] | Ki [5] | IC50 [6] | Ki [6] | IC50 [7] | IC50 [8] | Ki [8] | IC50 [9] | Ki [9] | IC50 [10] | IC50 [11] | Ki [11] | IC50 [12] | IC50 [13] | Ki [13] | IC50 [14] | IC50 [15] | IC50 [16]

COC(=O)c1ccc(O)cc1 [METHYLPARABEN]
Not Active: IC50 [1] | IC50 [2] | Ki [2] | IC50 [3] | IC50 [4] | IC50 [5] | Ki [5] | IC50 [6] | Ki [6] | IC50 [7] | IC50 [8] | Ki [8] | IC50 [9] | Ki [9] | IC50 [10] | IC50 [11] | Ki [11] | IC50 [12] | IC50 [13] | Ki [13] | IC50 [14] | IC50 [15] | IC50 [16]

C[C@](N)(Cc1ccc(O)cc1)C(=O)O [METYROSINE]
Not Active: IC50 [1] | IC50 [2] | Ki [2] | IC50 [3] | IC50 [4] | IC50 [5] | Ki [5] | IC50 [6] | Ki [6] | IC50 [7] | IC50 [8] | Ki [8] | IC50 [9] | Ki [9] | IC50 [10] | IC50 [11] | Ki [11] | IC50 [12] | IC50 [13] | Ki [13] | IC50 [14] | IC50 [15] | IC50 [16]

Clc1ccc(C(c2ccccc2Cl)C(Cl)Cl)cc1 (stereo unspecified) [MITOTANE]
Not Active: IC50 [1] | IC50 [2] | Ki [2] | IC50 [3] | IC50 [4] | IC50 [5] | Ki [5] | IC50 [6] | Ki [6] | IC50 [7] | IC50 [8] | Ki [8] | IC50 [9] | Ki [9] | IC50 [10] | IC50 [11] | Ki [11] | IC50 [12] | IC50 [13] | Ki [13] | IC50 [14] | IC50 [15] | IC50 [16]
